Experimental data as given in patent US10744128B2, “6-(5-membered heteroaryl)isoquinolin-3-yl-(5-membered heteroaryl) carboxamides and preparation and use thereof” (Samumed, LLC, priority 2017, dated 2020).
Like-named read-outs stand apart in the source and are kept apart here.

Legend:
[1] = tested on: Wnt-responsive promoter (Sp5-Luc reporter) in SW480 colon carcinoma cells; assay: Sp5-Luc reporter gene screening assay for Wnt activity in SW480 cells; assay type: cell-based, human; conditions: Homo sapiens, 36 to 48 hours, luminescence
Text: The screening assay for Wnt activity is described as follows. Reporter cell lines can be generated by stably transducing cancer cell lines (e.g., colon cancer) or primary cells (e.g., IEC-6 intestinal cells) with a lentiviral construct that includes a Wnt-responsive promoter driving expression of the firefly luciferase gene.
SW480 colon carcinoma cells were transduced with a lentiviral vector expressing luciferase with a human Sp5 promoter consisting of a sequence of eight TCF/LEF binding sites. SW480 cells stably expressing the Sp5-Luc reporter gene and a hygromycin resistance gene were selected by treatment with 150 μg/mL of hygromycin for 7 days. These stably transduced SW480 cells were expanded in cell culture and used for all further screening activities. […] For Sp5-Luc reporter gene assays, the cells were plated at 4,000 cells/well in 384-well plates with a DMEM medium containing 1% fetal bovine serum, and 1% Penicillin-Streptomycin and incubated for 36 to 48 hours at 37° C. and 5% CO2. Following incubation, 15 μl of BriteLite Plus luminescence reagent (Perkin Elmer) was added to each well of the 384-well assay plates. The plates were placed on an orbital shaker for 2 min and then luminescence was quantified using the Envision (Perkin Elmer) plate reader. Readings were normalized to DMSO only treated cells, and normalized activities were utilized for EC50 calculations using the dose-response log (inhibitor) vs. response −variable slope (four parameters) nonlinear regression feature available in GraphPad Prism 5.0 (or Dotmatics).

recombinant GSK3β kinase = recombinant GSK3β kinase (Homo sapiens (Human), UniProt P49841); assay: GSK3β kinase assay (Ser/Thr 09 peptide Z-lyte, FRET); assay type: biochemical
[2] = tested on: SW480 colon carcinoma cells; assay: Cell viability assay (CellTiter-Glo) in SW480 cells; assay type: cell-based, human; conditions: Homo sapiens, 96 h, four days
Method: SW480 colon carcinoma cells were transduced with a lentiviral vector expressing luciferase with a human Sp5 promoter consisting of a sequence of eight TCF/LEF binding sites. SW480 cells stably expressing the Sp5-Luc reporter gene and a hygromycin resistance gene were selected by treatment with 150 µg/mL of hygromycin for 7 days. These stably transduced SW480 cells were expanded in cell culture and used for all further screening activities.
For the Cell Viability Assays, the cells were plated at 2,000 cells/well in 384-well plates with a DMEM medium containing 1% fetal bovine serum, and 1% Penicillin-Streptomycin and incubated for […] at 37° C. and 5% CO2. Eight replicates of DMSO-treated cells served as controls and cells treated with compound were performed in duplicate.
After incubation, 10 μL of CellTiter-Glo (Promega) was added to each well allowed to incubate for approximately 12 minutes. This reagent “results in cell lysis and generation of a luminescent signal proportional to the amount of ATP present. The amount of ATP is directly proportional to the number of cells present in culture, in agreement with previous reports. The CellTiter-Glo® Assay generates a “glow-type” luminescent signal, produced by the luciferase reaction (Promega.com)”.

[3] = tested on: primary human fibroblasts derived from IPF patients (LL29 cells), α-smooth muscle actin; assay: Inhibition of fibrotic process: αSMA in TGF-β1 treated LL29 fibroblasts; assay type: cell-based; conditions: Homo sapiens, Fibroblast, 96 h; LL29 cells, TGF-β1 20 ng/mL, 4 days, % cells positive for αSMA
Method: Representative compounds were screened using primary human fibroblasts (derived from IPF patients) treated with TGF-β1 to determine their ability to inhibit the fibrotic process.
LL29 cells were plated at 1,500 cells/well in 70 μL/well F12 medium supplemented with 1% Fetal Bovine Serum. […] Wells treated with TGF-β1 and containing DMSO were used as positive control, and cells with only DMSO were negative control. […] Following incubation for 4 days, SYTOX green nucleic acid stain (Life Technologies [Thermo Fisher Scientific]) was added to the wells at a final concentration of 1 μM and incubated at room temperature for 30 min.

IL-6 = IL-6 inhibition in LPS-stimulated human peripheral blood mononuclear cells (HTRF); assay type: cell-based; conditions: Homo sapiens, PBMC; for EC50: huPBMCs, LPS 50 ng/mL, 22 hours, IL-6 HTRF; for inhibition at 10 µM: read-out: percent inhibition at 10 μM
Method: Fresh Normal PB MNC (Catalog # PB001, AllCells, Alameda, Calif.) were shipped overnight at 4° C. and resuspended in Roswell Park Memorial Institute (RPMI) 1640 Medium, with GlutaMAX Supplement (Catalog #61870127, ThermoFisher Scientific, Waltham, Mass.) supplemented with 1% Penicillin-Streptomycin (Catalog #15140163, ThermoFisher Scientific, Waltham, Mass.) and 1% fetal bovine serum (FBS) (Catalog #16140089, ThermoFisher Scientific, Waltham, Mass.) assay media.
Fresh normal human peripheral blood mononuclear cells (huPBMCs) were resuspended in 1% FBS-RPMI assay media with 1% Penicillin-Streptomycin 1% to a cell concentration of 1×10e6 cells/mL. […] 50 ng/mL of Lipopolysaccharides from Escherichia coli 0111:B4 (Catalog #L5293-2ML, Sigma-Aldrich, St. Louis, Mo.) was added after 2 hours and cells were incubated for another 22 hours at 37° C.-5% CO2. After 22 hour incubation, a mixture of anti-IL6 XL665 and anti-IL-6 Cryptate diluted in reconstitution buffer (Catalog #62IL6PEC, Cisbio Inc., Bedford, Mass.) was added to each well. Following incubation for 3 hours at room temperature, Homogeneous Time-Resolved Fluorescence (HTRF) was measured using the Envision (Perkin Elmer, Shelton, Conn.) at 665 nm and […]. The ratio of fluorescence at 665 nm to 620 nm was used as a readout for IL-6 quantification. All samples were processed in duplicate. Readings were normalized to DMSO treated cells and normalized activities were utilized for EC50 calculations. EC50 was determined using software generated by Dotmatics Limited (Windhill Bishops Stortford Herts, UK) using the Levenberg-Marquardt 4 parameter fitting procedure with finite different gradients.

[4] = molecular target: recombinant DYRK1A kinase (Homo sapiens (Human), UniProt Q13627); assay: DYRK1A kinase assay (Ser/Thr 18 peptide Z-lyte, FRET)
Method: Each compound was dissolved in DMSO as a 10 mM stock and used to prepare compound source plates.
This is a non-radioactive assay using fluorescence resonance energy transfer (FRET) between coumarin and fluorescein to detect kinase activity which is represented as a ratio of coumarin emission/fluorescein emission.
The mixture was allowed to incubate with the representative compounds for one hour at room temperature. All reactions were performed in duplicate. Unphosphorylated (“0% Control”) and phosphorylated (“100% control”) forms of Ser/Thr 18 served as control reactions. Additionally, an 11-point dose-response curve of Staurosporine (1 uM top) was run to serve as a positive compound control.
After incubation, Development Reagent A was diluted in Development Buffer then added to the reaction and allowed to further incubate for one hour at room temperature.
Dose-response curves were generated and inhibitory concentration (IC50) values were calculated using non-linear regression curve fit in the Dotmatics' Studies Software (Bishops Stortford, UK).

[5] = GSK3β kinase, 46 μM ATP, one hour, method calls values IC50
[6] = DYRK1A kinase, 30 μM ATP, one hour, method calls values IC50

recombinant GSK3β kinase, sequence (P49841 whole entry): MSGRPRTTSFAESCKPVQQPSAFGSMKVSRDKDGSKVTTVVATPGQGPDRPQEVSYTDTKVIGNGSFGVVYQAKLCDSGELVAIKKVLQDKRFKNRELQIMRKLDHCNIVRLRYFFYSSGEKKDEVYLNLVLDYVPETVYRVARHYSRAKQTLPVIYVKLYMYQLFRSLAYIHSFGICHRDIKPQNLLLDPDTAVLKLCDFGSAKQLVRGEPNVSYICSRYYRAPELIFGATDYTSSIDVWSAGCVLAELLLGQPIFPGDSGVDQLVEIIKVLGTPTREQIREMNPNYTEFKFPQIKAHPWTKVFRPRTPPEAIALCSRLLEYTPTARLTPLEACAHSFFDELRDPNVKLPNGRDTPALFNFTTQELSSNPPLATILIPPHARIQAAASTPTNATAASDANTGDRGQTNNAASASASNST

SMILES | EC50 [1] | EC50 (recombinant GSK3β kinase; [5]) | EC50 [2] | EC50 (IL-6) | EC50 [4, 6] | EC50 (recombinant GSK3β kinase) | EC50 [4] | EC50 [3] | inhibition at 10 µM (IL-6)
Cc1nnc(-c2ccc3cnc(NC(=O)c4cn(C5CCN(C)CC5)nn4)cc3c2)s1 [Compound 67, N-(6-(5-Methyl-1,3,4-thiadiazol-2-yl)isoquinolin-3-yl)-1-(1-methylpiperidin-4-yl)-1H-1,2,3-triazole-4-carboxamide] | 0.463 µM | 2.34 µM | 0.899 µM | > 10 µM | 0.031 µM |  |  | 4.36 µM | 8.3%
Cc1ncc(-c2ccc3cnc(NC(=O)c4cnn(C5CCN(C)CC5)c4)cc3c2)o1 [Compound 63, N-(6-(2-Methyloxazol-5-yl)isoquinolin-3-yl)-1-(1-methylpiperidin-4-yl)-1H-pyrazole-4-carboxamide] | 0.034 µM | 0.611 µM | 0.058 µM | 0.298 µM | 0.002 µM |  |  | 0.113 µM | 
CN(C)C1CN(c2nc(C(=O)Nc3cc4cc(-c5cnn(C)c5)ccc4cn3)co2)C1 [Compound 18, 2-(3-(Dimethylamino)azetidin-1-yl)-N-(6-(1-methyl-1H-pyrazol-4-yl)isoquinolin-3-yl)oxazole-4-carboxamide] | 1.04 µM | 1.26 µM | 3.91 µM | > 10 µM | 0.015 µM |  |  | 0.481 µM | 9%
Cc1nc(C(=O)Nc2cc3cc(-c4cncn4C)ccc3cn2)co1 [Compound 53, 2-Methyl-N-(6-(1-methyl-1H-imidazol-5-yl)isoquinolin-3-yl)oxazole-4-carboxamide] | 1.89 µM | 0.821 µM | 3.2 µM | > 10 µM | 0.014 µM |  |  | 2.42 µM | 47.5%

Continued by falling EC50 [1], values first:

EC50 [1] | EC50 (recombinant GSK3β kinase; [5]) | EC50 [2] | EC50 (IL-6) | EC50 [4, 6] | EC50 (recombinant GSK3β kinase) | EC50 [4] | SMILES | EC50 [3] | inhibition at 10 µM (IL-6)
0.18 µM | 2.59 µM | 0.782 µM | > 10 µM | 0.016 µM |  |  | CC(C)N1CCC(c2nc(C(=O)Nc3cc4cc(-c5cnn(C)c5)ccc4cn3)co2)CC1 [Compound 22, 2-(1-Isopropylpiperidin-4-yl)-N-(6-(1-methyl-1H-pyrazol-4-yl)isoquinolin-3-yl)oxazole-4-carboxamide] | 2.91 µM | 27.8%
0.12 µM | 2.08 µM | 0.485 µM | 3.39 µM | 0.005 µM |  |  | Cn1cc(-c2ccc3cnc(NC(=O)c4cn(C5CCN(CCF)CC5)nn4)cc3c2)cn1 [Compound 13, 1-(1-(2-Fluoroethyl)piperidin-4-yl)-N-(6-(1-methyl-1H-pyrazol-4-yl)isoquinolin-3-yl)-1H-1,2,3-triazole-4-carboxamide] | 0.26 µM | 
0.022 µM |  | 0.034 µM | 0.218 µM |  | 2.06 µM | 0.002 µM | [2H]C([2H])([2H])n1cc(-c2ccc3cnc(NC(=O)c4cnn(C5CCN(C)CC5)c4)cc3c2)cn1 [Compound 5, N-(6-(1-(Methyl-d3)-1H-pyrazol-4-yl)isoquinolin-3-yl)-1-(1-methylpiperidin-4-yl)-1H-pyrazole-4-carboxamide] | 0.084 µM | 
0.021 µM | 0.286 µM | 0.039 µM | 0.688 µM | 0.003 µM |  |  | CCN1CCC(n2cc(C(=O)Nc3cc4cc(-c5cn(C)nn5)ccc4cn3)cn2)CC1 [Compound 31, 1-(1-Ethylpiperidin-4-yl)-N-(6-(1-methyl-1H-1,2,3-triazol-4-yl)isoquinolin-3-yl)-1H-pyrazole-4-carboxamide] | 0.298 µM | 
0.014 µM | 0.322 µM | 0.032 µM | 0.261 µM | 0.003 µM |  |  | CN1CCC(n2cc(C(=O)Nc3cc4cc(-c5cn(C)nn5)ccc4cn3)cn2)CC1 [Compound 30, N-(6-(1-Methyl-1H-1,2,3-triazol-4-yl)isoquinolin-3-yl)-1-(1-methylpiperidin-4-yl)-1H-pyrazole-4-carboxamide] | 0.083 µM | 
